Laboratory results taken from US20120196766A1, “Therapeutic Use of Farnesyltransferase Inhibitors and Methods of Monitoring the Efficacy Thereof” (priority 2004, published 2012).

System: THP-1 cells
Experiment: cDNA microarray analysis of LPS-induced gene transcription in THP-1 cells
Format: cell-based, Human
Settings: LPS 100 ng/ml, tipifarnib 5 μM
Description: THP-1 cells were cultured in RPMI1640 medium, supplemented with 10% FBS/100 units/ml Penicillin/10 μg/ml Streptomycin at 37° C., under 5% CO2. […] For the untreated control group (no LPS, no compound) and LPS alone group, equivalent volumes of DMSO were added to the medium. Cells were cultured at 37° C. and pellets were collected at 0 hr, 1 hr, 3 hr, 6 hr, 12 hr & 24 hr. Cell pellets were stored at −80° C. if RNA isolation was not conducted immediately. For experiments to study cytokine secretion in culture supernatants, THP-1 cells were washed twice with PBS, resuspended at 3.4×10^5/ml and cultured in 96-well plates at 250 μL, per well at 37° C. […] Supernatants were collected at different time points as indicated in the figures and were kept at ≦−20° C. until analysis of cytokine production.
Total RNA was isolated using RNeasy mini kit from QIAGEN (Valencia, Calif.) according to the manufacturer's instructions. RNA samples were stored at −80° C.
Five μg of total RNA was linearly amplified to double-stranded cDNA using T7-based amplification. The cDNA was purified using the QIAquick 96 PCR purification kit (QIAGEN Valencia, Calif.), and used to generate amplified (a) RNA using AmpliScribe™ T7 High Yield Transcription Kit (Epicentre, Madison, Wis.). Ten μg of purified aRNA was reverse transcribed to cDNA using the SuperScript RTII kit (Invitrogen) and labeled by direct incorporation of Cy3-dCTP. The generated cDNA probe was used for hybridizing to cDNA microarrays.
Each clone was spotted in duplicate on the array.

Cn1cncc1C(N)(c1ccc(Cl)cc1)c1ccc2c(c1)c(-c1cccc(Cl)c1)cc(=O)n2C (single isomer, unassigned; (+)) [tipifarnib, (+)-6-[amino(4-chlorophenyl)(1-methyl-1H-imidazol-5-yl)methyl]-4-(3-chlorophenyl)-1-methyl-2(1H)-quinolinone]
1.32: Fold-change (tipifarnib/LPS vs LPS) IER3 (1 hr) | Fold-change (tipifarnib/LPS vs LPS) IL1B (3 hr)
−1.15: Fold-change (tipifarnib/LPS vs LPS) IL1RN (1 hr) | Fold-change (tipifarnib/LPS vs LPS) IFNB1 (3 hr) | Fold-change (tipifarnib/LPS vs LPS) IL1RN (3 hr) | Fold-change (tipifarnib/LPS vs LPS) KCNK17 (3 hr) | Fold-change (tipifarnib/LPS vs LPS) LGR7 (3 hr) | Fold-change (tipifarnib/LPS vs LPS) LY6E (3 hr) | Fold-change (tipifarnib/LPS vs LPS) MYD88 (3 hr) | Fold-change (tipifarnib/LPS vs LPS) PTX3 (3 hr) | Fold-change (tipifarnib/LPS vs LPS) S100A9 (3 hr)
1.00: Fold-change (tipifarnib/LPS vs LPS) C3AR1 (1 hr) | Fold-change (tipifarnib/LPS vs LPS) CCND1 (1 hr) | Fold-change (tipifarnib/LPS vs LPS) CXCL11 (1 hr) | Fold-change (tipifarnib/LPS vs LPS) GNPNAT1 (1 hr) | Fold-change (tipifarnib/LPS vs LPS) IFIT1 (1 hr) | Fold-change (tipifarnib/LPS vs LPS) IGFBP3 (1 hr) | Fold-change (tipifarnib/LPS vs LPS) MX1 (1 hr) | Fold-change (tipifarnib/LPS vs LPS) NEXN (1 hr) | Fold-change (tipifarnib/LPS vs LPS) PLAUR (1 hr) | Fold-change (tipifarnib/LPS vs LPS) S100A9 (1 hr) | Fold-change (tipifarnib/LPS vs LPS) TRIM22 (1 hr) | Fold-change (tipifarnib/LPS vs LPS) UBE2L6 (1 hr) | Fold-change (tipifarnib/LPS vs LPS) ABCB8 (3 hr) | Fold-change (tipifarnib/LPS vs LPS) B2M (3 hr) | Fold-change (tipifarnib/LPS vs LPS) CCL3 (3 hr) | Fold-change (tipifarnib/LPS vs LPS) CCL8 (3 hr) | Fold-change (tipifarnib/LPS vs LPS) GNPNAT1 (3 hr) | Fold-change (tipifarnib/LPS vs LPS) IFI16 (3 hr) | Fold-change (tipifarnib/LPS vs LPS) IFIT1 (3 hr) | Fold-change (tipifarnib/LPS vs LPS) NEXN (3 hr)
1.15: Fold-change (tipifarnib/LPS vs LPS) B2M (1 hr) | Fold-change (tipifarnib/LPS vs LPS) PTX3 (1 hr)
−1.32: Fold-change (tipifarnib/LPS vs LPS) CCL2 (3 hr)
−1.07: Fold-change (tipifarnib/LPS vs LPS) CCL2 (1 hr) | Fold-change (tipifarnib/LPS vs LPS) CCL3 (1 hr) | Fold-change (tipifarnib/LPS vs LPS) CCL8 (1 hr) | Fold-change (tipifarnib/LPS vs LPS) IL8 (1 hr) | Fold-change (tipifarnib/LPS vs LPS) KCNK17 (1 hr) | Fold-change (tipifarnib/LPS vs LPS) LAP3 (1 hr) | Fold-change (tipifarnib/LPS vs LPS) MMP9 (1 hr) | Fold-change (tipifarnib/LPS vs LPS) NFKB2 (1 hr) | Fold-change (tipifarnib/LPS vs LPS) CCND1 (3 hr) | Fold-change (tipifarnib/LPS vs LPS) CXCL11 (3 hr) | Fold-change (tipifarnib/LPS vs LPS) IGFBP3 (3 hr) | Fold-change (tipifarnib/LPS vs LPS) LAP3 (3 hr) | Fold-change (tipifarnib/LPS vs LPS) MMP9 (3 hr) | Fold-change (tipifarnib/LPS vs LPS) MX1 (3 hr)
1.07: Fold-change (tipifarnib/LPS vs LPS) ABCB8 (1 hr) | Fold-change (tipifarnib/LPS vs LPS) CCL4 (1 hr) | Fold-change (tipifarnib/LPS vs LPS) IFI16 (1 hr) | Fold-change (tipifarnib/LPS vs LPS) IL1B (1 hr) | Fold-change (tipifarnib/LPS vs LPS) MYD88 (1 hr) | Fold-change (tipifarnib/LPS vs LPS) TAP2 (1 hr) | Fold-change (tipifarnib/LPS vs LPS) C3AR1 (3 hr)
1.23: Fold-change (tipifarnib/LPS vs LPS) LGR7 (1 hr) | Fold-change (tipifarnib/LPS vs LPS) STAT1 (1 hr) | Fold-change (tipifarnib/LPS vs LPS) NFKB2 (3 hr)
−1.23: Fold-change (tipifarnib/LPS vs LPS) IFNB1 (1 hr) | Fold-change (tipifarnib/LPS vs LPS) TAP1 (1 hr) | Fold-change (tipifarnib/LPS vs LPS) IL8 (3 hr) | Fold-change (tipifarnib/LPS vs LPS) PLAUR (3 hr)
